Values quoted from earlier work as cited in US20230087756A1, “SYSTEMS AND METHODS FOR […] OF BREWED BEVERAGES AND ACTIVE INGREDIENTS” (RECEPTOR HOLDINGS, INC., priority 2020, published 2023).

CCCCCc1cc(O)c2c(c1)OC(C)(C)[C@@H]1CCC(C)=C[C@@H]21 [THC, (−)-trans-delta-9-tetrahydrocannabinol]
duration of appetite stimulant effect (after administration): ≥ 24 h | peak effect (after most forms of oral administration): 2 to 4 h | absorbed (after single oral doses): 90-95% | duration of action for psychoactive effects (oral administration): 4 to 6 h
